Experimental data as given in US20210228548A1, “PHARMACEUTICAL COMPOSITION FOR PREVENTING, ALLEVIATING OR TREATING OSTEOARTHRITIS, CONTAINING RHODANINE DERIVATIVE AS ACTIVE INGREDIENT” (Avixgen Inc., priority 2018, published 2021).
“Also recorded” adds a separate entry of the source.

Assays:
Type in all cases: in vivo, C57/BL6 mice
[1] = system: ZIP8-overexpressing mice; experiment: Cartilage destruction in mice with osteoarthritis induced by ZIP8 overexpression (safranin-O staining, modified Mankin score); conditions: Ad-ZIP8 mice, three injections; for modified Mankin score (degree of cartilage destruction): intra-articular 0.0075, 0.015, 0.03 mg/kg once a week, vehicle group 2 or higher, also decreased concentration-dependently, FIGS. 2A, 4A, 6A; for loss of the cartilage matrix (safranin-O staining of whole joint and cartilage): intra-articular co-injection 0.0075, 0.015, 0.03 mg/kg once a week, versus vehicle group, FIGS. 1, 3, 5
Method: (§1) Osteoarthritis-induced mice were prepared by overexpressing the zinc importer ZIP8 in the cartilage and joint tissues of mice.
(§2) Specifically, the cartilage and joint tissues of about 12-week-old male C57/BL6 mice were injected intra-articularly with a normal control adenovirus (Ad-C) or a ZIP8-expressing adenovirus (Ad-S1c39a8). A vehicle group was treated only with a vehicle without a vector. Each of the adenoviruses was injected at a concentration of 1×10^9 PFU a total of three times (once a week).
(§3) Meanwhile, in order to evaluate the effect of each of the therapeutic agents AVIX-7, MA3001 and MA6004 on the amelioration of osteoarthritis induced by ZIP8 overexpression, AVIX-7, MA3001 or MA6004 was co-injected into the joint when each adenovirus was injected.
(§4) Each of the therapeutic agents was used at doses of 0.0075 mg/kg, 0.015 mg/kg and 0.03 mg/kg mouse body weight. Each therapeutic agent was administered by injection once a week, and the amount of each therapeutic agent administered at each time point was 10 μl. One week after the day of the last injection of a total of three injections, the mice were sacrificed and the degree of cartilage destruction and the degree of occurrence of synovitis were analyzed.
In order to evaluate the therapeutic effect of AVIX-7, MA3001 or MA6004 on osteoarthritis in ZIP8-overexpressing mice, whole joint and cartilage tissues were stained with safranin-O and the degree of cartilage destruction was checked.
In addition, the degree of safranin-O staining (reflecting the degree of cartilage destruction) according to Table 2 below was observed and degraded according to the modified Mankin score (Mankin, Henry J., and Louis Lippiello. JBJS 52.3 (1970): 424-434.), and the grades were quantified graphically. The Mankin score is an index indicating the degree of arthritis and may be determined by the degree of safranin-O staining in mice, and the lower the Mankin score, the closer to normal.

[2] = system: ZIP8-overexpressing mice; experiment: Synovitis in ZIP8-overexpressing animal model (hematoxylin-eosin/safranin-O staining, synovitis score); conditions: Ad-ZIP8 mice, intra-articular 0.0075, 0.015, 0.03 mg/kg once a week, three injections; for score of synovitis: untreated ZIP8 mice 2 or higher, FIGS. 2B, 4B, 6B; for inflammatory response (penetration of inflammatory cells into the synovium): versus vehicle group, FIGS. 1, 3, 5
Method: as §1, §2, §3, §4
In order to evaluate the osteoarthritis amelioration effect of each of the therapeutic agents developed in the present disclosure, the ZIP8-overexpressing animal model was treated with AVIX-7, MA3001 or MA6004, and the cartilage and joint tissues of the animal model were stained with hematoxylin-eosin/safranin-O, and the presence or absence of synovitis was checked. The ZIP8-overexpressing animal model was prepared by the method described in Example 1.
In addition, the degree of synovitis was scored according to “Synovitis score: discrimination between chronic low-grade and high-grade synovitis. Histopathology 49, 358-364” described in Table 3 below, and was quantified graphically.

[3] = system: mice with osteoarthritis induced by DMM; experiment: Osteoarthritis induced by destabilization of the medial meniscus (DMM): staining, OARSI grade, subchondral bone plate thickness; conditions: intra-articular 0.0075, 0.015, 0.03 mg/kg once a week, three injections; for thickness of the subchondral bone plate (SBP): versus vehicle group (significantly increased), FIGS. 8B, 10B, 12B; for inflammation response in whole joint and cartilage tissues (images and OARSI grade): versus vehicle group, FIGS. 7B, 9B, 11B, 8A, 10A, 12A
Method: Mice with osteoarthritis induced by destabilization of the medial meniscus (DMM) were prepared. As a control group, a group (sham) whose meniscus was not damaged during surgery was used.
Specifically, osteoarthritis was induced by damaging the menisci of joints of about 12-week-old male C57/BL6 mice, and each therapeutic agent (AVIX-7, MA3001 or MA6004) was injected intra-articularly.
Each of the therapeutic agents was used at doses of 0.0075 mg/kg, 0.015 mg/kg and 0.03 mg/kg mouse body weight. Each therapeutic agent was administered by injection once a week, and the amount of each therapeutic agent administered at each time point was 10 μl. One week after the day of the last injection of a total of three injections, the mice were sacrificed and the effect of each therapeutic agent on the amelioration of osteoarthritis was evaluated.
In order to evaluate the effect of the compounds of the present disclosure on the amelioration of osteoarthritis, mice were subjected to destabilization of the medial meniscus (DMM) to induce osteoarthritis and were treated with AVIX-7, MA3001 or MA6004. In addition, the cartilage and joint tissues were stained with hematoxylin-eosin/safranin-O, and the effect of AVIX-7, MA3001 or MA6004 on the amelioration of osteoarthritis was evaluated pathologically. […] The OARSI grading method is described in Table 4 below.

Row | Compound | modified Mankin score (degree of cartilage destruction) [1] | loss of the cartilage matrix (safranin-O staining of whole joint and cartilage) [1] | score of synovitis [2] | inflammatory response (penetration of inflammatory cells into the synovium) [2] | thickness of the subchondral bone plate (SBP) [3] | inflammation response in whole joint and cartilage tissues (images and OARSI grade) [3]
1 | O=C(O)CCN1C(=O)/C(=C\c2ccc(-c3ccc(Cl)cc3)o2)SC1=S [AVIX-7, 3-{5-[5-(4-chlorophenyl)-furan-2-ylmethylene]-4-oxo-2-thioxo-thiazolidin-3-yl}-propionic acid] | lower than that of the vehicle group | rescuing the loss of cartilage matrix; also recorded: concentration-dependently rescued | significantly decreased | alleviating synovitis; also recorded: alleviated | decreased | alleviated
2 | CC(C)OC(=O)c1ccc(-c2ccc(/C=C3\SC(=S)N(CCCC(=O)O)C3=O)o2)cc1 [MA3001, 4-(5-((5-(4-(isopropoxycarbonyl)phenyl)furan-2-yl)methylene)-4-oxo-2-thioxothiazolidin-3-yl)butanoic acid] | lower than that of the vehicle group | rescuing the loss of cartilage matrix; also recorded: concentration-dependently rescued | significantly decreased | alleviating synovitis; also recorded: alleviated | decreased | alleviated
3 | O=C(O)CCN1C(=O)SC(Cc2ccc(-c3ccc(Cl)cc3)o2)C1=O (stereo not drawn) [MA6004, 3-(5-((5-(4-chlorophenyl)furan-2-yl)methyl)-2,4-dioxothiazolidin-3-yl)propionic acid] | lower than that of the vehicle group | rescuing the loss of cartilage matrix; also recorded: concentration-dependently rescued | significantly decreased | alleviating synovitis; also recorded: alleviated | decreased | alleviated
